# Experimental data published in US11834672B2, “Method for producing hypophysis precursor tissue” (RIKEN, priority 2011, dated 2023).
# “Also recorded” adds a separate entry of the source. Ends that are not written are not given here.
# B1: FGF8: FGF signal promoter (protein, UniProt P55075 23-233, looked up)
# Fibroblast growth factor 8: QEGPGRGPALGRELASLFRAGREPQGVSQQHVREQSLVTDQLSRRLIRTYQLYSRTSGKHVQVLANKRINAMAEDGDPFAKLIVETDTFGSRVRVRGAETGLYICMNKKGKLIAKSNGKGKDCVFTEIVLENNYTALQNAKYEGWYMAFTRKGRPRKGSKTRQHQREVHFMKRLPRGHHTTEQSLRFEFLNYPPFTRSLRGSQRTWAPEPR
# B2: BMP4: Bone Morphogenetic protein of the BMP2/4 group; exogenous BMP signal promoter (protein, UniProt P12644 293-408, looked up)
# Bone morphogenetic protein 4: SPKHHSQRARKKNKNCRRHSLYVDFSDVGWNDWIVAPPGYQAFYCHGDCPFPLADHLNSTNHAIVQTLVNSVNSSIPKACCVPTELSAISMLYLDEYDKVVLKNYQEMVVEGCGCR
# Columns and labels:
# [1] = test system: ES cell-derived ACTH-producing cells; experiment: In vitro ACTH secretion from ES cell-derived ACTH-producing cells by CRH, ELISA of culture supernatant; type: cell-based, mouse
# [2] = test system: ES cell-derived ACTH-producing cells; experiment: as above; type: cell-based, mouse; details: 10 min, SAG- and DAPT-treated aggregates
# Description: Mouse ES cells were differentiated into ACTH-producing cells by a SAG treatment and a DAPT treatment (total 22 days) using the method of Example 3. The aggregates were treated with CRH (corticotropin releasing factor) and ACTH secretion was quantified. To be specific, eight aggregates were placed in 500 μl of HBSS solution and, after pre-incubation at 37° C. for 10 min, CRH was added at a final concentration of 10-10000 ng/ml, and the aggregates were incubated for 10 min. Then, the culture supernatant was recovered and measured by ELISA method (FIG. 4a).
# [3] = test system: ES cell-derived pituitary precursor tissue; experiment: Differentiation of ES cell-derived pituitary precursor tissue into ACTH-producing cells, fluorescence antibody staining; type: cell-based, mouse; details: for expression of Pitx1: DAPT, BIO or IWP2 treatment, day 26 (FIG. 3k)
# Description: Furthermore, using gfCDM medium, the aggregates were cultured under 40% O2 and 5% CO2 for 12 days in total (total 22 days). Moreover, the aggregates were treated with Notch signal inhibitor, 10 μM DAPT, for one day during days 18-19 or days 20-21 of culture.
# [4] = test system: ES cell-derived pituitary precursor tissue; experiment: Differentiation of ES cell-derived pituitary precursor tissue into GH-, PRL-, LH-, FSH-, TSH-positive cells; type: cell-based, mouse
# Description: Mouse ES cells were differentiated into pituitary precursor tissues by an SAG treatment (400 nM for 7 days and 100 nM for 3 days, total 10 days) using the method of Example 2. Furthermore, the aggregates were continuously floating-cultured under 40% O2 and 5% CO2. The medium used was gfCDM comprising corticosteroid (200 ng/ml hydrocortisone) and 1 nM insulin, gfCDM comprising estrogen (50 ng/ml estradiol) and 1 nM insulin, or culture supernatant (conditioned medium) of mouse feeder cell, PA6 cell, in gfCDM.
# The expression of growth hormone (GH), prolactin (PRL), luteinizing hormone (LH), follicle-stimulating hormone (FSH), and thyroid-stimulating hormone (TSH) was confirmed by cytochemical staining of frozen section by the fluorescence antibody method.
# [5] = test system: mouse ES cell aggregates (10000 cells per aggregate); experiment: Induction of pituitary precursor tissue (Lim3) in mouse ES cell aggregates by hedgehog signal treatment; type: cell-based
# Description: Aggregates of mouse ES cells were formed from 10000 cells per aggregate by using the SFEBq/gfCDM method (Wataya et al, 2008, PNAS vol. 105, pp. 11796-11801), and subjected to the floating-culture as in Example 1. Immediately after the start of the differentiation culture, SAG (Danjo et al, JNS, 2011, vol. 31, pp. 1919-1933), a hedgehog agonist, was added at 100 or 400 nM, and the aggregates were cultured for a total of 10-13 days. […] The expression of Lim3, a marker of pituitary precursor tissue (Rathke's pouch), and the like was confirmed by PCR or cytochemical staining of frozen section by the fluorescence antibody method. The expression of Lim3 was also confirmed using Lim3::GFP knocked-in ES cells.
# hedgehog signaling = details: cited from earlier work
# mouse ES cell aggregates = experiment: SFEBq/gfCDM floating culture of mouse ES cell aggregates, non-neural head ectoderm marker Pitx2 by qPCR; type: cell-based; details: BMP4 0.5 nM added to the medium, SFEBq/CDM-cultured ESCs
# human ES cells = experiment: Floating aggregate culture of human ES cells with BMP4 and SAG, Pitx1 by qPCR and marker staining; type: cell-based; details: for E-cad positive non-neural ectoderm morphology: BMP-treated group, day 25 of culture
# Description: Human ES cells (12000 cells) dispersed into single-cells with trypsin were subjected to floating aggregate culture in the presence of a […] ROCK inhibitor Y-27632 (Watanabe et al, Nature Neuroscience, 2007) in the same manner as in Example 1. The culture medium used was gfCDM added with 5% KSR. From day 3 of culture, 0.5 nM, 1.5 nM or 5.0 nM BMP4 was added to the culture medium, 1000 nM SAG was added from day 6 of culture, and the floating-culture was continued.
# [6] = SAG 100 or 400 nM, PCR on day 10 and later
molecule,measurement,setting,value
"CRH: corticotropin releasing factor, hypothalamic hormone promoting ACTH secretion (SEEPPISLDLTFHLLREVLEMARAEQLAQQAHSNRKLMEII; ends and bridges not checked; UniProt P06850 154-194, looked up)",ACTH secretion,"[1]; 1000 ng/ml CRH, aggregates without SAG treatment",did not show a significant increase
same,ACTH secretion,"[1]; CRH added, aggregates with SAG treatment but without DAPT treatment",did not show much increase
same,induction of ACTH secretion by releasing hormones,[1]; SAG- and DAPT-treated aggregates (FIG. 4b),CRH-specific; also recorded: enhancement of ACTH secretion
same,ACTH concentration of the culture supernatant,[2]; 10 ng/ml CRH,1.4 pg/mL
same,ACTH concentration of the culture supernatant,[2]; 100 ng/ml CRH,4 pg/mL
same,ACTH concentration of the culture supernatant,[2]; 1000 ng/ml CRH,8.5 to 9.5 pg/mL
same,ACTH concentration of the culture supernatant,[2]; 10000 ng/ml CRH,8.5 to 9.5 pg/mL
C[C@H](NC(=O)Cc1cc(F)cc(F)c1)C(=O)N[C@H](C(=O)OC(C)(C)C)c1ccccc1 [DAPT],expression of Tbx19 compared to without DAPT treatment,"[3]; 10 μM DAPT for one day, days 18-19 or 20-21, SAG-treated aggregates",enhanced Tbx19 expression
same,percentage of ACTH-positive cells,"[3]; 10 μM DAPT for one day, day 22",increased percentage
same,size of assemblies of Tbx19- and ACTH-highly positive cells,"[3]; 10 μM DAPT treatment, assemblies in plural sites",> 30 cells
same,expression of Pitx1,[3],"did not increase, or rather decreased"
"O=C1Nc2cc(Br)ccc2/C1=C1/Nc2ccccc2/C1=N\O [BIO, 6-bromoindirubin-3′-oxime]",expression of Pitx1,[3],greatly increased
same,further increase of GH-positive cells,"[4]; BIO 250 nM during days 16-18 of culture, then hydrocortisone and insulin",30-50%
Cc1ccc2nc(NC(=O)CSc3nc4c(c(=O)n3-c3ccccc3)SCC4)sc2c1 [IWP2],expression of Pitx1,[3],tended to decrease
Cc1nn(-c2ccccc2)c(C)c1/C=N/N1CCN(Cc2ccccc2)CC1 [SANT-1],effect on SAG induction of Lim3,[5]; hedgehog receptor antagonist added to SAG-treated aggregates,inhibited
CNC1CCC(N(Cc2cccc(-c3ccncc3)c2)C(=O)c2sc3ccccc3c2Cl)CC1 (stereo not drawn) [SAG],activity compared with Shh,hedgehog signaling,several-fold stronger activity than Shh
same,gene expression of Lim3 relative to SAG non-addition group,[5]; [6],7 fold
same,gene expression of Lim3 relative to undifferentiated ES cells,[5]; [6],15 fold
same,number of Lim3-positive epithelial pouch vesicles formed in the aggregate,"[5]; SAG-addition group, further 3 days in gfCDM, total 13 days",1-7
C[C@]12CCC(=O)C=C1CC[C@@H]1[C@@H]2[C@@H](O)C[C@@]2(C)[C@H]1CC[C@]2(O)C(=O)CO [hydrocortisone],effect of pre-treatment on the ACTH secretion promoting effect of CRH,[1]; hydrocortisone 100 ng/ml pre-treatment for 60 min,suppressed almost completely; also recorded: suppressed the enhancement of ACTH secretion by CRH
same,GH-positive cells in the aggregate,[4]; gfCDM with 200 ng/ml hydrocortisone and 1 nM insulin for 10 days from day 20,many GH-positive cells
B1,increase of tissues expressing Lim3,"[5]; FGF8 200 ng/ml during day 10-13, gfCDM without SAG",30-50%
B2,expression of Pitx2,mouse ES cell aggregates,increases; also recorded: elevation of Pitx2 expression
same,expression of Pitx1 compared to the group without the treatment,"human ES cells; 5 nM BMP4 from day 3, 12000 cells/aggregate, qPCR day 17",about 10 fold
same,result when started from 3000 and 6000 human ES cells,human ES cells; BMP4 added to the medium,equivalent results were obtained
same,E-cad positive non-neural ectoderm morphology,human ES cells,formation of E-cadherin^+ thickened non-neural ectoderm
same,E-cad positive non-neural ectoderm morphology,human ES cells; listed as BMP,a part thereof was thickened to show a placode-like structure
